Laboratory results reported in publication PMC8682760, “Specificity and sensitivity of an RNA targeting type III CRISPR complex coupled with a NucC endonuclease effector” (Nucleic Acids Research, 2021).
Where “and” joins values, the source holds several entries; their conditions need not be identical. Equal values may be shown once.

Experiments:
NucC = molecular target: T1, NucC (Vibrio metoecus, UniProt P0DUD6); assay: fluorogenic dsDNA (FAM/Iowa Black) cleavage, plate reader; type: biochemical; settings: read-out: Act50
T1 construct: Codon-optimised synthetic gene in pEV5HisTEV, N-terminal His8 tag (TEV step as for VmeCmr), E. coli C43(DE3); trimeric species used
T1 sequence (P0DUD6 1-245): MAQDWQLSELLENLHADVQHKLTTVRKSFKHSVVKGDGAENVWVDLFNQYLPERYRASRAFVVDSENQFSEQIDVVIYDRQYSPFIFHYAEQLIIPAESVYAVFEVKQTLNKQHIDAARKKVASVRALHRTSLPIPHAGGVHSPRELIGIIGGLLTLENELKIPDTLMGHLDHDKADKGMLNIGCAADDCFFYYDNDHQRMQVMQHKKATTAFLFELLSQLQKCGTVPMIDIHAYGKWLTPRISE

[1] = molecular target: the molecule itself; assay: SEC; HiLoad 16/60 Superdex pg 200, 20 mM Tris-HCl, 250 mM NaCl, 10% (v/v) glycerol, pH 7.5; peaks at approximately 160 ml and 180 ml

Nc1ncnc2c1ncn2[C@@H]1O[C@@H]2COP(=O)(O)O[C@H]3[C@@H](O)[C@H](n4cnc5c(N)ncnc54)O[C@@H]3COP(=O)(O)O[C@H]3[C@@H](O)[C@H](n4cnc5c(N)ncnc54)O[C@@H]3COP(=O)(O)O[C@H]2[C@H]1O [cA3]
EC50 (NucC): 0.094 ± 0.004 nM

B1: Vibrio metoecus NucC DNA endonuclease effector (enzyme, UniProt P0DUD6 1-245, looked up)
chain: T1 sequence (P0DUD6 1-245)
notes: NucC of the Vibrio metoecus type III-B CRISPR locus; source: E. coli C43(DE3), purified (HisTrap, TEV, second HisTrap, SEC on Superdex 200); not shown: His8, N-terminal, cleaved
stoichiometry N [1]: 6 and 3
